Reference: PubChem BioAssay AID248 (DTP/NCI, 2004)
Toxic doses and inconclusive results are not listed. Cut-off read from the data, not from the text of the source: active = T/C of 150% or more; inactive = T/C below 125%.

Test system: L1210 leukemia ip in BDF1 mice, survival T/C
Experiment: NCI In Vivo Anticancer Drug Screen. Data for tumor model L1210 Leukemia (intraperitoneal) in B6D2F1 (BDF1) mice
Conditions: endpoint: mean survival time, higher = longer survival
Summary of the method: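 Transplantable tumor model; survival measured in treated vs vehicle control mice. Value = treated/control.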

[1] = dose: 100.0 mg/kg/injection, schedule: Q01DX001 (ip), vehicle: saline
[2] = dose: 200.0 mg/kg/injection, schedule: Q01DX001 (ip), vehicle: saline
[3] = dose: 400.0 mg/kg/injection, schedule: Q01DX001 (ip), vehicle: saline
[4] = dose: 100.0 mg/kg/injection, schedule: Q01DX001 (ip), vehicle: Klucel (hydroxypropylcellulose) (HPC)
[5] = dose: 100.0 mg/kg/injection, schedule: Q01DX009 (ip), vehicle: Klucel (hydroxypropylcellulose) (HPC)
[6] = dose: 100.0 mg/kg/injection, schedule: Q04DX003 (ip), vehicle: Klucel (hydroxypropylcellulose) (HPC)
[7] = dose: 200.0 mg/kg/injection, schedule: Q01DX001 (ip), vehicle: Klucel (hydroxypropylcellulose) (HPC)
[8] = dose: 200.0 mg/kg/injection, schedule: Q01DX009 (ip), vehicle: Klucel (hydroxypropylcellulose) (HPC)
[9] = dose: 200.0 mg/kg/injection, schedule: Q04DX003 (ip), vehicle: Klucel (hydroxypropylcellulose) (HPC)
[10] = dose: 400.0 mg/kg/injection, schedule: Q04DX003 (ip), vehicle: Klucel (hydroxypropylcellulose) (HPC)
[11] = dose: 100.0 mg/kg/injection, schedule: Q01DX009 (ip), vehicle: saline with Tween-80
[12] = dose: 400.0 mg/kg/injection, schedule: Q01DX009 (ip), vehicle: Klucel (hydroxypropylcellulose) (HPC)
[13] = dose: 100.0 mg/kg/injection, schedule: Q01DX001 (ip), vehicle: saline with Tween-80
[14] = dose: 100.0 mg/kg/injection, schedule: Q04DX002 (ip), vehicle: Klucel (hydroxypropylcellulose) (HPC)
[15] = dose: 200.0 mg/kg/injection, schedule: Q04DX002 (ip), vehicle: Klucel (hydroxypropylcellulose) (HPC)
[16] = dose: 400.0 mg/kg/injection, schedule: Q04DX002 (ip), vehicle: Klucel (hydroxypropylcellulose) (HPC)

Measured: T/C

C/C(=C/c1ccc(/C=C(\C)[N+](=O)[O-])cc1)[N+](=O)[O-]
inactive: dose: 10.0 mg/kg/injection, schedule: Q01DX001 (ip), vehicle: acetone 106 % of control

O=C1C=CC(=O)c2c(O)c(CO)c(CO)c(O)c21
inactive: dose: 0.78 mg/kg/injection, schedule: Q01DX009 (ip), vehicle: water 89 % of control | dose: 1.56 mg/kg/injection, schedule: Q01DX009 (ip), vehicle: water 86 % of control

CCOC(=O)n1cnc2nc(N)nc(Cl)c21
inactive: dose: 50.0 mg/kg/injection, schedule: Q01DX001 (ip), vehicle: saline 103 % of control | [1] 105 % of control | [2] 100 % of control | [3] 122 % of control

CCOC(=O)c1ccc(N=NN(C)CC(C)C)cc1
inactive: [4] 107 % of control | [5] 112 % of control | [6] 105 % of control | [7] 104 % of control | [8] 122 % of control | [9] 107 % of control | dose: 400.0 mg/kg/injection, schedule: Q01DX001 (ip), vehicle: Klucel (hydroxypropylcellulose) (HPC) 107 % of control | [10] 108 % of control

COc1ccc(C(=O)/C(C)=N/O)cc1
inactive: [1] 103 % of control | [2] 103 % of control | [3] 101 % of control

CCSc1nc(C2NC(C(=O)O)CS2)cc(=O)[nH]1 (stereo unspecified)
inactive: dose: 50.0 mg/kg/injection, schedule: Q01DX001 (ip), vehicle: Klucel (hydroxypropylcellulose) (HPC) 98 % of control | [4] 98 % of control | [7] 97 % of control

CCN(CC)CC(O)CNc1ccnc2cc(Cl)ccc12 (stereo unspecified)
inactive: dose: 25.0 mg/kg/injection, schedule: Q01DX009 (ip), vehicle: saline with Tween-80 97 % of control | dose: 50.0 mg/kg/injection, schedule: Q01DX009 (ip), vehicle: saline with Tween-80 86 % of control | [11] 97 % of control

CCOC(=O)C(=O)c1c(C)[nH]c2ccccc12
inactive: [5] 96 % of control | [6] 103 % of control | [8] 92 % of control | [9] 95 % of control | [12] 94 % of control | [10] 97 % of control

O=C(O)c1ccccc1Cc1ccc2c(c1)Cc1ccccc1-2
inactive: dose: 100.0 mg/kg/injection, schedule: Q01DX001 (ip), vehicle: carboxymethylcellulose (CMC) 92 % of control | dose: 200.0 mg/kg/injection, schedule: Q01DX001 (ip), vehicle: carboxymethylcellulose (CMC) 94 % of control | dose: 400.0 mg/kg/injection, schedule: Q01DX001 (ip), vehicle: carboxymethylcellulose (CMC) 113 % of control

COc1ccc2c3c(c4cc(OC)c(OC)cc4c2c1)CN1CCC[C@H]1[C@@H]3O
inactive: dose: 0.57 mg/kg/injection, schedule: Q01DX Z (ip), vehicle: water 103 % of control | dose: 0.86 mg/kg/injection, schedule: Q01DX Z (ip), vehicle: water 106 % of control | dose: 1.3 mg/kg/injection, schedule: Q01DX Z (ip), vehicle: water 111 % of control | dose: 2.0 mg/kg/injection, schedule: Q01DX Z (ip), vehicle: water 119 % of control | dose: 9.0 mg/kg/injection, schedule: Q01DX015 (ip), vehicle: acid diluted with saline 118 % of control | dose: 12.0 mg/kg/injection, schedule: Q01DX015 (ip), vehicle: acid diluted with saline 112 % of control

[Cu+2].[NH-]CC(=O)O.[NH-]CC(=O)O
inactive: dose: 5.0 mg/kg/injection, schedule: Q04DX003 (ip), vehicle: saline 103 % of control | dose: 10.0 mg/kg/injection, schedule: Q04DX003 (ip), vehicle: saline 99 % of control | dose: 20.0 mg/kg/injection, schedule: Q04DX003 (ip), vehicle: saline 94 % of control

O=C(Cl)C12CCC(CC1)C1CCC2CC1
inactive: dose: 100.0 mg/kg/injection, schedule: Q04DX003 (ip), vehicle: saline 86 % of control | dose: 200.0 mg/kg/injection, schedule: Q04DX003 (ip), vehicle: saline 92 % of control | dose: 400.0 mg/kg/injection, schedule: Q04DX003 (ip), vehicle: saline 97 % of control

C=CCN1/C(=C\C=C\c2ccc3cc(C)ccc3[n+]2CC=C)C=Cc2cc(C)ccc21
inactive: dose: 1.17 mg/kg/injection, schedule: Q01DX001 (ip), vehicle: steriod suspending solution 111 % of control

COc1ccc(NN=Nc2ccccc2C#N)cc1
inactive: [6] 106 % of control | [9] 100 % of control | [10] 108 % of control

CCN1C(=O)NC(=O)/C(=C/N(CCO)CCO)C1=O
inactive: [5] 106 % of control | [6] 94 % of control | [8] 101 % of control | [9] 98 % of control | [12] 100 % of control | [10] 93 % of control

COc1ccc2ccccc2c1/C=N/N1CCCCC1
inactive: [11] 100 % of control | dose: 200.0 mg/kg/injection, schedule: Q01DX009 (ip), vehicle: saline with Tween-80 93 % of control | dose: 400.0 mg/kg/injection, schedule: Q01DX009 (ip), vehicle: saline with Tween-80 100 % of control

O=C1CCCCC1CCCBr (stereo unspecified)
inactive: [13] 102 % of control | dose: 200.0 mg/kg/injection, schedule: Q01DX001 (ip), vehicle: saline with Tween-80 98 % of control | dose: 400.0 mg/kg/injection, schedule: Q01DX001 (ip), vehicle: saline with Tween-80 95 % of control

O=C1c2ccccc2C(=O)c2c1cccc2S(=O)(=O)O
inactive: dose: 25.0 mg/kg/injection, schedule: Q01DX001 (ip), vehicle: saline with Tween-80 105 % of control | dose: 50.0 mg/kg/injection, schedule: Q01DX001 (ip), vehicle: saline with Tween-80 103 % of control | [13] 105 % of control

CCCCCCCc1nc(N)nc(N2CCOCC2)n1
inactive: [14] 89 % of control | [15] 100 % of control | [16] 110 % of control

CS(=O)(=O)c1ccc(C(O)C(CO)NC(=O)C(Cl)Cl)cc1 (stereo unspecified)
inactive: [14] 96 % of control | [15] 93 % of control | [16] 90 % of control

C/C=N\N=C(N)N
inactive: dose: 15.0 mg/kg/injection, schedule: Q01DX Z (ip), vehicle: saline 91 % of control | dose: 30.0 mg/kg/injection, schedule: Q01DX Z (ip), vehicle: saline 97 % of control | dose: 60.0 mg/kg/injection, schedule: Q01DX Z (ip), vehicle: saline 100 % of control | dose: 120.0 mg/kg/injection, schedule: Q01DX Z (ip), vehicle: saline 94 % of control | dose: 120.0 mg/kg/injection, schedule: Q01DX Z (oral), vehicle: other 95 % of control | dose: 240.0 mg/kg/injection, schedule: Q01DX Z (oral), vehicle: other 97 % of control | dose: 480.0 mg/kg/injection, schedule: Q01DX Z (oral), vehicle: other 102 % of control | dose: 960.0 mg/kg/injection, schedule: Q01DX Z (oral), vehicle: other 122 % of control

COCCCNP(=O)(OC(C)C)OC(C)C
inactive: dose: 100.0 mg/kg/injection, schedule: Q01DX001 (ip), vehicle: acetone 109 % of control | dose: 100.0 mg/kg/injection, schedule: Q04DX003 (ip), vehicle: acetone 97 % of control | dose: 200.0 mg/kg/injection, schedule: Q01DX001 (ip), vehicle: acetone 98 % of control | dose: 200.0 mg/kg/injection, schedule: Q04DX003 (ip), vehicle: acetone 95 % of control | dose: 400.0 mg/kg/injection, schedule: Q01DX001 (ip), vehicle: acetone 110 % of control | dose: 400.0 mg/kg/injection, schedule: Q04DX003 (ip), vehicle: acetone 95 % of control

CS(=O)(=O)OCCN(CCOS(C)(=O)=O)c1ccc(C=Nc2cccc(Br)c2)cc1
inactive: dose: 2.5 mg/kg/injection, schedule: Q04DX003 (ip), vehicle: Klucel (hydroxypropylcellulose) (HPC) 103 % of control | dose: 5.0 mg/kg/injection, schedule: Q04DX003 (ip), vehicle: Klucel (hydroxypropylcellulose) (HPC) 109 % of control | dose: 10.0 mg/kg/injection, schedule: Q04DX003 (ip), vehicle: Klucel (hydroxypropylcellulose) (HPC) 117 % of control | [6] 92 % of control

C/C(=C/C=C(c1ccccc1)c1ccccc1)C1CCC2C3CCC4CC5CCC4(C)C3(O5)C(=O)CC12C (stereo unspecified)
inactive: dose: 100.0 mg/kg/injection, schedule: Q04DX003 (sc), vehicle: steriod suspending solution 96 % of control | dose: 200.0 mg/kg/injection, schedule: Q04DX003 (sc), vehicle: steriod suspending solution 93 % of control | dose: 400.0 mg/kg/injection, schedule: Q04DX003 (sc), vehicle: steriod suspending solution 93 % of control
